# Reference: article PMC8288134, “Synthesis, potential antitumor activity, cell cycle analysis, and multitarget mechanisms of novel hydrazones incorporating a 4-methylsulfonylbenzene scaffold: a molecular docking study” (Journal of Enzyme Inhibition and Medicinal Chemistry, 2021)
# Tests used:
# HER2 = HER2 (Homo sapiens, UniProt P04626); test: biochemical; details: read-out: IC50 HER2 Inhibition
# Description: (§1) In vitro luminescent EGFR tyrosine kinase assay using Kinase-Glo® MAX as a detection reagent, and In vitro HER2 tyrosine kinase assay using DP‐Glo™ reagent that measures ADP formed from a kinase reaction, this luminescent signal positively correlates with ADP amount and kinase activity. […]
# (§2) 2.1.5. EGFR and Her2 assays
# (§3) In vitro luminescent EGFR tyrosine kinase assay, using Kinase-Glo® MAX as a detection reagent, and In vitro HER2 tyrosine kinase assay, using DP‐Glo™ reagent that measures the adenosine diphosphate (ADP) formed from a kinase reaction, were performed; this luminescent signal positively correlates with ADP amount and kinase activity. In 17 μl of distilled water, 6 μl of Kinase assay buffer and 1 μl ATP and 1 μl PTK substrate were mixed (master mixture). In every well, mix 20 μl of the master mixture and 5 μl of Inhibitor solution (Test Inhibitor) for positive control, and use 5 μl of the same solution without inhibitor (Inhibitor buffer) as the blank solution; add 20 μl of diluted EGFR or Her2 enzyme and incubate at 30°C for 40 min. Add 50 μl of Kinase-Glo Max reagent to each well, cover the plate with aluminum foil and incubate the plate at room temperature for 15 min. Afterward, measure luminescence using the microplate reader. “Blank” value is subtracted from all readings. […]
# EGFR = EGFR (Homo sapiens, UniProt P00533); test: biochemical; details: read-out: IC50 EGFR Inhibition
# EGFR, sequence (P00533 25-1210): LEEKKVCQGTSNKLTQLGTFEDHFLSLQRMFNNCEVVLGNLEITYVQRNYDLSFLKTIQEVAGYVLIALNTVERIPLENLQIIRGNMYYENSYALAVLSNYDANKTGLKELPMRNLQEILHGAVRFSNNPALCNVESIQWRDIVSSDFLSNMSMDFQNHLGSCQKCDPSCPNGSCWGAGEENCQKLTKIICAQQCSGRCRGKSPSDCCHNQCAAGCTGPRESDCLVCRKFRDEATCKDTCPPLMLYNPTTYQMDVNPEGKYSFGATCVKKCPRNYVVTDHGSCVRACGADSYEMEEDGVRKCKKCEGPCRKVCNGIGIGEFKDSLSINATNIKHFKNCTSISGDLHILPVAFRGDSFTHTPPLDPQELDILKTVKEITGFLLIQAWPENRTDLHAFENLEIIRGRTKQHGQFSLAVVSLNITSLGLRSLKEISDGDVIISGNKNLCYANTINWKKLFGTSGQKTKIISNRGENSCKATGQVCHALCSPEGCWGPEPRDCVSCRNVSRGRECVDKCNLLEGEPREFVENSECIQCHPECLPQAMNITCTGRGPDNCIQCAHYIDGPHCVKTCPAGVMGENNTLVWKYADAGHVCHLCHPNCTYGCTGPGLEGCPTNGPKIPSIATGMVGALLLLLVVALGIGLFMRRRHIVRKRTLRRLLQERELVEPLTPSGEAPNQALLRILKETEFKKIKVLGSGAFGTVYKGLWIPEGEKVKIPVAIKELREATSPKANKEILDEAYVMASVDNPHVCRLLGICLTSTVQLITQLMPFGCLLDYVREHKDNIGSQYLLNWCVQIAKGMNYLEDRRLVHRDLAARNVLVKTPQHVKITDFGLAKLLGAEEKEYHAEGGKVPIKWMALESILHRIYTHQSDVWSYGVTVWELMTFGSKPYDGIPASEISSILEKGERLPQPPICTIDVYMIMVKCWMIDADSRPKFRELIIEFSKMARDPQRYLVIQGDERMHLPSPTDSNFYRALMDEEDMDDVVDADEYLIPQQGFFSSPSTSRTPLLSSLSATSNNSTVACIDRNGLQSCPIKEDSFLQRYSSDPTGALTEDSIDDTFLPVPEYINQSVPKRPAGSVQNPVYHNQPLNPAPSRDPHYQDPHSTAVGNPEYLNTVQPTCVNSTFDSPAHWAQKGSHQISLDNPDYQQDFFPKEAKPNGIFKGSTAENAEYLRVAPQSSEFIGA
# Description: as §1, §2, §3
# HT29 = test: NCI antitumor screen (SRB); format: cell-based; details: Homo sapiens, HT-29, one dose 10 µM, read-out: Growth inhibition percentage (GI%)
# HL60 cells = test: Annexin V-FITC/PI apoptosis assay; format: cell-based, human; details: HL60, 10 µM, 24 h
# Procedure: Apoptosis induction is the most important mechanism by which major chemotherapeutics kill cancer cells. Apoptosis causes cellular changes whereby the translocation of phosphatidylserine (PS) occurs through the plasma membrane from the inside to the outside. Annexin-V can bind to PS, which can be used as a sensitive probe for PS on the outer side of the plasma membrane. […] The AV/PI staining of HL60 cells was performed at a mixed molar concentration of 10 µM with compounds 6, 9, 16, and 20 for 24 h. Figure 4 and Table 5 show the results of treating HL60 cells with compounds 6, 9, 16, and 20 for 24 h.
# According to our previous report, apoptosis induction was performed using the Leukaemia HL-60 cell line and well-established Annexin 5-FITC/PI detection kit. The cell line samples were analysed using FACSCalibur flow cytometer[40]^,[72]. […]
# [(Ti-Tz)/Tz)] x 100 for concentration of which Ti ≤ Tz.
# The induction of apoptosis was performed according to our previous report using Leukemia HL-
# 60 cell line and well-established Annexin 5-FITC/PI detection kit. The cell line samples were
# analyzed using a FACSCalibur flow cytometer. […]
# HOP-62 = test: NCI antitumor screen (SRB); format: cell-based; details: Homo sapiens, HOP-62, read-out: Growth inhibition percentage (GI%)
# SK-MEL-28 = test: NCI antitumor screen (SRB); format: cell-based, human; details: Homo sapiens; SK-MEL-28; one dose 10 µM; read-out: Growth inhibition percentage (GI%)
# SW-620 = test: NCI antitumor screen (SRB); format: cell-based; details: Homo sapiens, one dose 10 µM, read-out: Growth inhibition percentage (GI%)
# [1] = test system: full panel of 59 cancer cell lines; test: NCI antitumor screen, full panel; details: one dose 10 µM
# PRMI-8226 = test: NCI antitumor screen (SRB); format: cell-based; details: Homo sapiens, one dose 10 µM, read-out: Growth inhibition percentage (GI%)
# NCI-H322M = test: NCI antitumor screen (SRB); format: cell-based; details: Homo sapiens, read-out: Growth inhibition percentage (GI%)
# COLO 205 = test: NCI antitumor screen (SRB); format: cell-based; details: Homo sapiens, one dose 10 µM, read-out: Growth inhibition percentage (GI%)
# HER2, sequence (P04626 23-1255): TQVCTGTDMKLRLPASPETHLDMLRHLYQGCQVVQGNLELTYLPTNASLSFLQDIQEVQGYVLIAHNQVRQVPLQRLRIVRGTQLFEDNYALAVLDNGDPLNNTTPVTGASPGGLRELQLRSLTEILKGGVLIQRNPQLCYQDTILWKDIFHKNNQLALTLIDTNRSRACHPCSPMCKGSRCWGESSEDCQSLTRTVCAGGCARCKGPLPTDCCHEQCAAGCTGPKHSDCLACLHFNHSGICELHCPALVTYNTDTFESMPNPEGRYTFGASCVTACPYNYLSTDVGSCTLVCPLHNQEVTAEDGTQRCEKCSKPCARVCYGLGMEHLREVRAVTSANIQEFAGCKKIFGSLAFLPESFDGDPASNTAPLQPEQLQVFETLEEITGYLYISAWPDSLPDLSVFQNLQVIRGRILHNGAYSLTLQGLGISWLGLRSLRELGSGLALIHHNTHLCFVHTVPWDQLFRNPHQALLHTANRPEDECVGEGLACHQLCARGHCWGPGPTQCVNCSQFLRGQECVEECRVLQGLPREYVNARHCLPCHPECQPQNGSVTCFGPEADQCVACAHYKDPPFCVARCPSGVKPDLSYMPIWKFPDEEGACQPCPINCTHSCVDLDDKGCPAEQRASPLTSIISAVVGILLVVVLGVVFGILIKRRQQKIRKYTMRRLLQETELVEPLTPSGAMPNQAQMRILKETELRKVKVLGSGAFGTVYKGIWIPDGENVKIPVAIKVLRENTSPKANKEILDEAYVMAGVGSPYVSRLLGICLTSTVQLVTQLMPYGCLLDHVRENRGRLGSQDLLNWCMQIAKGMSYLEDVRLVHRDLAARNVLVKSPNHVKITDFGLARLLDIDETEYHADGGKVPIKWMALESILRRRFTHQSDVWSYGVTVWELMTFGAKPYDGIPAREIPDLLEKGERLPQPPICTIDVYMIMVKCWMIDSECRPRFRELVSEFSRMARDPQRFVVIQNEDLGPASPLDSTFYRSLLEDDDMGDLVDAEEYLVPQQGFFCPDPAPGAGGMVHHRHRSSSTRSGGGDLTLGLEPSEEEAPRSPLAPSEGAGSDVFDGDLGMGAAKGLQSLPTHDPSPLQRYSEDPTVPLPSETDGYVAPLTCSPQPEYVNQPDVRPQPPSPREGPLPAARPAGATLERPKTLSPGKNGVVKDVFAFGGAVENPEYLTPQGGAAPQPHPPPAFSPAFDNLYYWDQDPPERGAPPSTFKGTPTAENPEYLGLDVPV
structure (smiles),measurement,setting,value
CS(=O)(=O)c1ccc(C(=O)N/N=C/c2ccccc2O)cc1 [Compound 16],IC50,HER2,130 ± 40 nM
same,IC50,EGFR,200 ± 70 nM
same,inhibition at 10 µM,HT29,56.4%
same,"Apoptosis, early",HL60 cells,7.34%
same,"Apoptosis, late",HL60 cells,13.41%
same,"Apoptosis, total (annexin V-FITC positive cells)",HL60 cells,22.41%
same,Necrosis,HL60 cells,1.66%
same,inhibition at 10 µM,HOP-62,71.8%
same,inhibition at 10 µM,SK-MEL-28,44.1%
same,inhibition at 10 µM,SW-620,56.7%
same,PCE: positive cytotoxic effect (number of cell lines with GI 10 to 100% / total number of cell lines),[1],59/59
same,inhibition at 10 µM,PRMI-8226,51.3%
same,inhibition at 10 µM,NCI-H322M,61.6%
same,inhibition at 10 µM,COLO 205,68.8%
